For this assay, the target named is T1, HPK1 (Homo sapiens, UniProt Q92918).
T1 construct: A HiBiT tag was introduced by CRISPR on the N terminus of HPK1 in Jurkat cells; host or cells: Jurkat cells (ATCC TIB-152), monoclonal line with CRISPR knock-in of HiBiT at the endogenous HPK1 locus
Nature of the assay: HPK1 Cellular HiBit Degradation Assay. Format: cell-based. Particulars: HiBiT HPK1 Jurkat cells, 24 hrs; for DC50: concentration at which 50% of HPK1 was remaining, read-out: DC50 Category; for Dmax: Jurkat, maximum degradation vs DMSO vehicle control, read-out: Dmax Category. The essentials: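 HPK1 levels are read by HiBiT luminescence after 24 h exposure of HiBiT-knock-in Jurkat cells to compound at 10 uM–0.1 nM final (11 points). Relative to DMSO (100%), DC50 is the concentration leaving 50% HPK1 from a variable-slope fit, and Dmax is 100 minus minimum remaining. Viability checked in-plate.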

Molecules are shown by their SMILES.

T1 sequence (Q92918 whole entry): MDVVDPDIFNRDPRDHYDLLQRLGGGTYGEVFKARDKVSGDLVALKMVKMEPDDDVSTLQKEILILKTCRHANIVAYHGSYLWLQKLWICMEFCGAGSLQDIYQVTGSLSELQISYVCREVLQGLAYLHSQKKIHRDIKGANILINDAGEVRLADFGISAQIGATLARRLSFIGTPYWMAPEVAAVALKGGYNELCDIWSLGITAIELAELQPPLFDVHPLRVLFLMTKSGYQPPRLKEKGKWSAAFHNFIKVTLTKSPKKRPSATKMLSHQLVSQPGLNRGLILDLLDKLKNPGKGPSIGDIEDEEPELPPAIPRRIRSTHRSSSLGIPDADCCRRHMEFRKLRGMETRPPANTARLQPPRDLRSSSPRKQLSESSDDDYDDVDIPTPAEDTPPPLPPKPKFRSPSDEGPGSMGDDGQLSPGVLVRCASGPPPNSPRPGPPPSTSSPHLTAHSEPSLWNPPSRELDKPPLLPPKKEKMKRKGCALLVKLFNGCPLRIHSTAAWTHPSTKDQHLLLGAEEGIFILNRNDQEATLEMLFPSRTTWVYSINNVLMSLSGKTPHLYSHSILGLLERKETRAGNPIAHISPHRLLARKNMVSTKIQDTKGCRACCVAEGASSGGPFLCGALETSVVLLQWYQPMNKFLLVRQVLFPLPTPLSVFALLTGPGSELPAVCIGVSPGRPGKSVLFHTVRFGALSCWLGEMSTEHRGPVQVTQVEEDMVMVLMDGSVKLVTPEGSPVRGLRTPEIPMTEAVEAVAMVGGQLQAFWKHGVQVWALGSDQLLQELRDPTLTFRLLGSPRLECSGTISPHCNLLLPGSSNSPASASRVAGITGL

Turning to `Cc1cc(C(=O)N2CCC3(CC2)C(=O)N([C@H]2C[C@@H](N4CCCCC4)C2)c2cc(-c4cc5ncn(C(C)C)c5c(Nc5ccccc5F)n4)ccc23)ccc1C(=O)N1CCN(c2ccc3c(c2)C(=O)N(C2CCC(=O)NC2=O)C3=O)CC1` (mixture of isomers) [Example 125, 2-[(3RS)-2,6-dioxopiperidin-3-yl]-5-(4-{4-[(6-{4-[(2-fluorophenyl)amino]-3-(propan-2-yl)-3H-imidazo[4,5-c]pyridin-6-yl}-2-oxo-1-[(1S,3S)-3-(piperidin-1-yl)cyclobutyl]-1,2-dihydrospiro[indole-3,4′-piperidin]-1′-yl)carbonyl]-2-methylbenzoyl}piperazin-1-yl)-2,3-dihydro-1H-isoindole-1,3-dione], the half-maximal degradation concentration (DC50) lay within 500 to 1000 nM and the Dmax is 50 to 70%.
On to `CC(C)n1cnc2cc(-c3ccc4c(c3)N([C@H]3C[C@@H](N5CCCCC5)C3)C(=O)C43CCN(C(=O)[C@@H]4CCN(C(=O)[C@H]5CC[C@H](N(C)c6ccc(C7CCC(=O)NC7=O)cn6)CC5)C4)CC3)nc(NC3CC3)c21` (mixture of isomers) [Example 126, (3RS)-3-(6-{methyl[(1R,4R)-4-[(3R)-3-({6-[4-(cyclopropylamino)-3-(propan-2-yl)-3H-imidazo[4,5-c]pyridin-6-yl]-2-oxo-1-[(1S,3S)-3-(piperidin-1-yl)cyclobutyl]-1,2-dihydrospiro[indole-3,4′-piperidin]-1′-yl}carbonyl)pyrrolidine-1-carbonyl]cyclohexyl]amino}pyridin-3-yl)piperidine-2,6-dione], for which the DC50 was < 100 nM and the Dmax is > 85%.
The corresponding values for `CC(C)n1cnc2cc(-c3ccc4c(c3)N([C@H]3C[C@@H](N5CCCCC5)C3)C(=O)C43CCN(C(=O)[C@@H]4CCN(C(=O)[C@H]5CC[C@H](N(C)c6ccc(C7CCC(=O)NC7=O)cn6)CC5)C4)CC3)nc(Nc3ccccc3F)c21` (mixture of isomers) [Example 127, (3RS)-3-(6-{METHYL [(1R,4R)-4-[(3R)-3-[(6-{4-[(2-fluorophenyl)amino]-3-(propan-2-yl)-3H-imidazo[4,5-c]pyridin-6-yl}-2-oxo-1-[(1S,3S)-3-(piperidin-1-yl)cyclobutyl]-1,2-dihydrospiro[indole-3,4′-piperidin]-1′-yl)carbonyl]pyrrolidine-1-carbonyl]cyclohexyl]amino}pyridin-3-yl)piperidine-2,6-dione] are < 100 nM and > 85%.
In the case of `CC(C)n1cnc2cc(-c3ccc4c(c3)N([C@H]3C[C@@H](N5CCCCC5)C3)C(=O)C43CCN(C(=O)[C@@H]4CCN(C(=O)[C@H]5CC[C@H](N(C)c6ccc(C7CCC(=O)NC7=O)cn6)CC5)C4)CC3)nc(Nc3ccncc3F)c21` (mixture of isomers) [Example 128, (3RS)-3-(6-{methyl[(1R,4R)-4-[(3R)-3-[(6-{4-[(3-Fluoropyridin-4-yl)amino]-3-(propan-2-yl)-3H-imidazo[4,5-c]pyridin-6-yl}-2-oxo-1-[(1S,3S)-3-(piperidin-1-yl)cyclobutyl]-1,2-dihydrospiro[indole-3,4′-piperidin]-1′-yl)carbonyl]pyrrolidine-1-carbonyl]cyclohexyl]amino}pyridin-3-yl)piperidine-2,6-dione], the DC50 was < 100 nM and the maximal degradation (Dmax) was > 85%.
`CC(C)n1cnc2cc(-c3ccc4c(c3)N([C@H]3C[C@@H](N5CCCCC5)C3)C(=O)C43CCN(C(=O)[C@@H]4CCN(C(=O)[C@H]5CC[C@H](N(C)c6cccc7c6C(=O)N(C6CCC(=O)NC6=O)C7=O)CC5)C4)CC3)nc(NC3CC3)c21` (mixture of isomers) [Example 129, 2-[(3RS)-2,6-dioxopiperidin-3-yl]-4-{methyl[(1R,4R)-4-[(3R)-3-({6-[4-(cyclopropylamino)-3-(propan-2-yl)-3H-imidazo[4,5-c]pyridin-6-yl]-2-oxo-1-[(1S,3S)-3-(piperidin-1-yl)cyclobutyl]-1,2-dihydrospiro[indole-3,4′-piperidin]-1′-yl}carbonyl)pyrrolidine-1-carbonyl]cyclohexyl]amino}-2,3-dihydro-1H-isoindole-1,3-dione]: the DC50 fell in the range of 100 to 500 nM and the Dmax fell in the range of 70 to 85%.
The corresponding values for `CC(C)n1cnc2cc(-c3ccc4c(c3)N([C@H]3C[C@@H](N5CCCCC5)C3)C(=O)C43CCN(C(=O)C4CCN(C(=O)[C@H]5CC[C@H](N(C)c6ccc(C7CCC(=O)NC7=O)cn6)CC5)CC4)CC3)nc(NC3CC3)c21` (mixture of isomers) [Example 130, (3RS)-3-(6-{methyl[(1R,4R)-4-[4-({6-[4-(cyclopropylamino)-3-(propan-2-yl)-3H-imidazo[4,5-c]pyridin-6-yl]-2-oxo-1-[(1S,3S)-3-(piperidin-1-yl)cyclobutyl]-1,2-dihydrospiro[indole-3,4′-piperidin]-1′-yl}carbonyl)piperidine-1-carbonyl]cyclohexyl]amino}pyridin-3-yl)piperidine-2,6-dione] are < 100 nM and 50 to 70%.
As for `CC(C)n1cnc2cc(-c3ccc4c(c3)N([C@H]3C[C@@H](N5CCCCC5)C3)C(=O)C43CCN(C(=O)C4CCN(C(=O)[C@H]5CC[C@H](N(C)c6ccc(C7CCC(=O)NC7=O)cn6)CC5)CC4)CC3)nc(Nc3ccccc3F)c21` (mixture of isomers) [Example 131, (3RS)-3-(6-{methyl[(1R,4R)-4-{4-[(6-{4-[(2-fluorophenyl)amino]-3-(propan-2-yl)-3H-imidazo[4,5-c]pyridin-6-yl}-2-oxo-1-[(1S,3S)-3-(piperidin-1-yl)cyclobutyl]-1,2-dihydrospiro[indole-3,4′-piperidin]-1′-yl)carbonyl]piperidine-1-carbonyl}cyclohexyl]amino}pyridin-3-yl)piperidine-2,6-dione], the DC50 is < 100 nM and the maximal degradation (Dmax) was 70 to 85%.
On to `CC(C)n1cnc2cc(-c3ccc4c(c3)N([C@H]3C[C@@H](N5CCCCC5)C3)C(=O)C43CCN(C(=O)C4CCN(C(=O)[C@H]5CC[C@H](N(C)c6ccc(C7CCC(=O)NC7=O)cn6)CC5)CC4)CC3)nc(Nc3ccncc3F)c21` (mixture of isomers) [Example 132, (3RS)-3-(6-{methyl[(1R,4R)-4-{4-[(6-{4-[(3-Fluoropyridin-4-yl)amino]-3-(propan-2-yl)-3H-imidazo[4,5-c]pyridin-6-yl}-2-oxo-1-[(1S,3S)-3-(piperidin-1-yl)cyclobutyl]-1,2-dihydrospiro[indole-3,4′-piperidin]-1′-yl)carbonyl]piperidine-1-carbonyl}cyclohexyl]amino}pyridin-3-yl)piperidine-2,6-dione], for which the DC50 was < 100 nM and the Dmax was in the range of 50 to 70%.
The corresponding values for `CC(C)n1cnc2cc(-c3ccc4c(c3)N([C@H]3C[C@@H](N5CCCCC5)C3)C(=O)C43CCN(C(=O)C4CCN(C(=O)[C@H]5CC[C@H](N(C)c6cccc7c6C(=O)N(C6CCC(=O)NC6=O)C7=O)CC5)CC4)CC3)nc(NC3CC3)c21` (mixture of isomers) [Example 133, 2-[(3RS)-2,6-dioxopiperidin-3-yl]-4-{methyl[(1R,4R)-4-[4-({6-[4-(cyclopropylamino)-3-(propan-2-yl)-3H-imidazo[4,5-c]pyridin-6-yl]-2-oxo-1-[(1S,3S)-3-(piperidin-1-yl)cyclobutyl]-1,2-dihydrospiro[indole-3,4′-piperidin]-1′-yl}carbonyl)piperidine-1-carbonyl]cyclohexyl]amino}-2,3-dihydro-1H-isoindole-1,3-dione] are 500 to 1000 nM and 50 to 70%.
The corresponding values for `CC(C)n1cnc2cc(-c3ccc4c(c3)N([C@H]3C[C@@H](N5CCCCC5)C3)C(=O)C43CCN(C(=O)[C@H]4CC[C@H](C(=O)N5CCC(N(C)c6ccc(C7CCC(=O)NC7=O)cc6)CC5)CC4)CC3)nc(NC3CC3)c21` (mixture of isomers) [Example 134, (3RS)-3-{4-[methyl({1-[(1R,4R)-4-({6-[4-(cyclopropylamino)-3-(propan-2-yl)-3H-imidazo[4,5-c]pyridin-6-yl]-2-oxo-1-[(1S,3S)-3-(piperidin-1-yl)cyclobutyl]-1,2-dihydrospiro[indole-3,4′-piperidin]-1′-yl}carbonyl)cyclohexanecarbonyl]piperidin-4-yl})amino]phenyl}piperidine-2,6-dione] are 100 to 500 nM and 50 to 70%.
The corresponding values for `CC(C)n1cnc2cc(-c3ccc4c(c3)N([C@H]3C[C@@H](N5CCCCC5)C3)C(=O)C43CCN(C(=O)[C@H]4CC[C@H](C(=O)N5CCC(N(C)c6ccc(C7CCC(=O)NC7=O)cc6)CC5)CC4)CC3)nc(Nc3ccccc3F)c21` (mixture of isomers) [Example 135, (3RS)-3-{4-[methyl({1-[(1R,4R)-4-[(6-{4-[(2-fluorophenyl)amino]-3-(propan-2-yl)-3H-imidazo[4,5-c]pyridin-6-yl}-2-oxo-1-[(1S,3S)-3-(piperidin-1-yl)cyclobutyl]-1,2-dihydrospiro[indole-3,4′-piperidin]-1′-yl)carbonyl]cyclohexanecarbonyl]piperidin-4-yl})amino]phenyl}piperidine-2,6-dione] are < 100 nM and 70 to 85%.
On to `CC(C)n1cnc2cc(-c3ccc4c(c3)N([C@H]3C[C@@H](N5CCCCC5)C3)C(=O)C43CCN(C(=O)[C@H]4CC[C@H](C(=O)N5CCC(N(C)c6ccc(C7CCC(=O)NC7=O)cc6)CC5)CC4)CC3)nc(Nc3ccncc3F)c21` (mixture of isomers) [Example 136, (3RS)-3-{4-[methyl({1-[(1R,4R)-4-[(6-{4-[(3-fluoropyridin-4-yl)amino]-3-(propan-2-yl)-3H-imidazo[4,5-c]pyridin-6-yl}-2-oxo-1-[(1S,3S)-3-(piperidin-1-yl)cyclobutyl]-1,2-dihydrospiro[indole-3,4′-piperidin]-11′-yl)carbonyl]cyclohexanecarbonyl]piperidin-4-yl})amino]phenyl}piperidine-2,6-dione], for which the DC50 was < 100 nM and the greatest degradation seen (Dmax) lay within 70 to 85%.

For the origin of these results see patent US12091426B2, “Bifunctional degraders of hematopoietic progenitor kinase and therapeutic uses thereof” (Nurix Therapeutics, Inc., priority 2021, dated 2024).
